Source: publication PMC7761743, “Structure and Characterization of Phosphoglucomutase 5 from Atlantic and Baltic Herring—An Inactive Enzyme with Intact Substrate Binding” (Biomolecules, 2020)

Biological target: T1, bPGM5 (Baltic herring PGM5) (Clupea harengus, UniProt A0A6P3VN15)
T1 construct: full length, 567 residues; codon-optimized, E. coli BL21(DE3), pNIC28-Bsa4, N-terminal TEV-cleavable His6-tag (kept in crystals, removed for DSF); monomer; Ser121 phosphorylated in crystal
Assay: X-ray crystal structure, […] Å
Assay type: binding
Conditions: active site; His6-tagged protein with phosphorylated Ser121, metal modelled as Ni2+; crystals soaked overnight with 5 mM glucose-1,6-bisphosphate, observed ligand is G1P; pH 6.5

T1 sequence (A0A6P3VN15 entry or part of it): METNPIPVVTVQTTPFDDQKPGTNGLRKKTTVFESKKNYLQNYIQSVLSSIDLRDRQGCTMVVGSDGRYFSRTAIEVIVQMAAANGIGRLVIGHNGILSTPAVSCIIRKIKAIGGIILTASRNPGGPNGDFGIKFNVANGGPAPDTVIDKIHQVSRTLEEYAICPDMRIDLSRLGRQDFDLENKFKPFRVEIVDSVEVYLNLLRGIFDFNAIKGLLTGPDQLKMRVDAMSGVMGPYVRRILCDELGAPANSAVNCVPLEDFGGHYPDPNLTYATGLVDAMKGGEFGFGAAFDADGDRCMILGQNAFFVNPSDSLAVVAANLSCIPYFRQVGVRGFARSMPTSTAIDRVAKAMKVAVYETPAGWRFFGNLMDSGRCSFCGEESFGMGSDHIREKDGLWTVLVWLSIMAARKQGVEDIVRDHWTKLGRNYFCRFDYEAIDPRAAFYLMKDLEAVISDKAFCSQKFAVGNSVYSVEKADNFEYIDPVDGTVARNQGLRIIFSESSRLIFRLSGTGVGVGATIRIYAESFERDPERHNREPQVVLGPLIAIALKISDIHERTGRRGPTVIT

O=P(O)(O)O[C@H]1O[C@H](CO)[C@@H](O)[C@H](O)[C@H]1O [G1P, glucose-1-phosphate]
X-ray crystal structure, 1.95 Å: the observed ligand is G1P instead of the G16P that was used in crystallization
